Results from patent US11293863B2, “Robust interferometer and methods of using same” (Vanderbilt University, priority 2015, dated 2022).

Key:
[1] = system: FAAH in small unilamellar vesicles; CXCR4 receptor; GABAB receptor in CHO cell membranes; assay: BSI label-free free-solution binding assays on membrane proteins (negative controls); settings: negative control compound, even the highest concentrations
Excerpt: Membrane-associated proteins and their interactions are of paramount interest in the design of clinical therapeutics, accounting for almost 70% of existing drug candidate targets (Krummel and Davis (2002) Current Opinion in Immunology 14: 66-74; Overington et al. (2006) Nature Reviews Drug Discovery 5: 993-996). To date, it has been difficult to perform direct binding assays on cellular membranes except by down-stream signal transduction or the use of isotope labeling methods. BSI facilitated label-free, free solution binding assays on proteoliposomes (Bracey et al. (2002) Science 298: 1793-1796; Jass et al. (2000) Biophysical Journal 79: 3153-3163) from full-length, functional membrane proteins, from both natural and recombinant sources (Kussrow et al. (2010) Chembiochem DOI: 10.1002/cbic.201000671). […]

[2] = molecular target: lectin Concanavalin A (ConA) (Canavalia ensiformis, UniProt P02866); settings: non-binding sugar used as control, free-solution BSI with ConA; cited from earlier work

Row | SMILES | BSI signal [1] | BSI binding signal [2]
1 | C[C@H](N)C(=O)O [L-alanine] | Little or no BSI signal | –
2 | CC(C)CCC[C@@H](C)[C@H]1CC[C@H]2[C@@H]3CC=C4C[C@@H](O)CC[C@]4(C)[C@H]3CC[C@]12C [cholesterol] | Little or no BSI signal | –
3 | O=C[C@H](O)[C@@H](O)[C@@H](O)[C@H](O)CO [galactose] | – | no binding signal
